According to ChEMBL document CHEMBL2074487, “Effects of 12 Ca2+ antagonists on multidrug resistance, MDR1-mediated transport and MDR1 mRNA expression” (Eur J Pharm Sci, 2002):

Biological target: ATP-dependent translocase ABCB1 (Homo sapiens, UniProt P08183)
Assay: TP_TRANSPORTER: inhibition of Digoxin transepithelial transport (basal to apical) (Digoxin: 0.1 uM) in MDR1-expressing LLC-PK1 cells
Assay type: functional, cell-based

Sequence of ATP-dependent translocase ABCB1 (P08183 whole entry): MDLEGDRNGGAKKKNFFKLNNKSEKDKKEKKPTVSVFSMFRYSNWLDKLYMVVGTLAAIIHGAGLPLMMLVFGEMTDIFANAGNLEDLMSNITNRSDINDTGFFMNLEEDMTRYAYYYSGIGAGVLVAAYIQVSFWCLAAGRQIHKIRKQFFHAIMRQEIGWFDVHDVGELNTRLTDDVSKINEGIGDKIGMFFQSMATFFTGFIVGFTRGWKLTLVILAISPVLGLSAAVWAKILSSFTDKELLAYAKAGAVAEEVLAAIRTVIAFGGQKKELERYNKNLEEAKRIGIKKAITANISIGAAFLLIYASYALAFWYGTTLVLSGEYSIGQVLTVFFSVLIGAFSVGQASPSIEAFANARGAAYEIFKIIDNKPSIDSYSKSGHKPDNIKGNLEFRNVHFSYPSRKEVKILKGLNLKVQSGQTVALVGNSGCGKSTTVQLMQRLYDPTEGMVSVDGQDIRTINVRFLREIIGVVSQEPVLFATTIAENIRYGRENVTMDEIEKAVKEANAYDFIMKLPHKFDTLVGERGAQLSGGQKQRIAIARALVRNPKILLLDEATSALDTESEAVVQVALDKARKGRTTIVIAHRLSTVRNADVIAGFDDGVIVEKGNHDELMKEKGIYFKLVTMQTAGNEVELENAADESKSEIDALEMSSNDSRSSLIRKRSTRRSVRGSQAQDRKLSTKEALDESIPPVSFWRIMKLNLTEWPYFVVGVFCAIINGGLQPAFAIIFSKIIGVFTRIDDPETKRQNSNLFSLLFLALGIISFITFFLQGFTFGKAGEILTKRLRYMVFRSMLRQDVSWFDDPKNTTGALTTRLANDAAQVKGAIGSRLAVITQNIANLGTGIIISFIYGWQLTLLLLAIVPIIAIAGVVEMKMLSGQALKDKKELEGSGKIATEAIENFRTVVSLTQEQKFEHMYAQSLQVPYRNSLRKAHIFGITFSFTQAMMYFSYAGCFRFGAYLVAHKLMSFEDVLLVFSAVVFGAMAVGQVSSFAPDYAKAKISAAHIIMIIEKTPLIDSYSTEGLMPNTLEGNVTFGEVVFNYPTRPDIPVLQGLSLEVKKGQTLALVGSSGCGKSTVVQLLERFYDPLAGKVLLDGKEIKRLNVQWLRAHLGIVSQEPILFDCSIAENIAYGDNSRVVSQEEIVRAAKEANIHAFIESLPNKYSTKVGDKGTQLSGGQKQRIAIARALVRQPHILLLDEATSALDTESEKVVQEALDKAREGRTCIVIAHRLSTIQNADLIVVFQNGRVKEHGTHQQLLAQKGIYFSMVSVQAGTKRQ

`COC(=O)C1=C(C)NC(C)=C(C(=O)OC)C1c1ccccc1[N+](=O)[O-]` [NIFEDIPINE] showed an IC50 of 472 µM.

Work on `COC(=O)C1=C(C)NC(C)=C(C(=O)OCC(C)C)C1c1ccccc1[N+](=O)[O-]` (configuration not stated) [NISOLDIPINE] yielded an IC50 of 44.1 µM.

`CC1=C(C(=O)OCCN(Cc2ccccc2)c2ccccc2)C(c2cccc([N+](=O)[O-])c2)C(P2(=O)OCC(C)(C)CO2)=C(C)N1` (configuration not stated) [EFONIDIPINE] was tested, and the IC50 was 13 µM.

In the case of `COC(=O)C1=C(C#N)NC(C)=C(C(=O)OC(C)C)C1c1cccc([N+](=O)[O-])c1` (configuration not stated) [NILVADIPINE], the IC50 is reported as 18 µM.

Work on `COC(=O)C1=C(C)NC(C)=C(C(=O)O[C@@H]2CCCN(Cc3ccccc3)C2)C1c1cccc([N+](=O)[O-])c1` (some centres not stated) yielded an IC50 of 4.96 µM.

`COC(=O)C1=C(C)NC(C)=C(C(=O)O[C@H]2CCN(Cc3ccccc3)C2)[C@H]1c1cccc([N+](=O)[O-])c1` [BARNIDIPINE] showed an IC50 of 12.6 µM.

`CCOC(=O)C1=C(C)NC(C)=C(C(=O)OC)C1c1cccc([N+](=O)[O-])c1` (configuration not stated) [NITRENDIPINE] gave an IC50 of 68.2 µM.
